Seven compounds from article PMC10932284 (International Journal of Molecular Sciences, 2024) can be followed below.

Like-named read-outs stand apart in the source and are kept apart here.

Assay [1] deals with M. tuberculosis strain susceptible to rifampicin and resistant to isoniazid. Type of assay: cell-based, Mycobacterium tuberculosis. The settings on record: 28 days, 37 °C.
For assay [2], the system named is M. tuberculosis strain resistant to both rifampicin and isoniazid. The assay is classed as cell-based, Mycobacterium tuberculosis. The settings on record: for number of M. tuberculosis colonies/standard inoculum volume (0.2 mL): 28 days, 37 °C; for growth inhibition of mycobacteria (in words): both concentrations (1 and 2 µg/mL).
Where [3] appears, read: 1 µg/mL in Lowenstein Jensen medium.
The mark [4] stands for this setting: 2 µg/mL in Lowenstein Jensen medium.

On to `CC(=O)Nc1nnc(S(N)(=O)=O)s1` [AAZ, acetazolamide, reference compound], for which the “number of M. tuberculosis colonies/standard inoculum volume (0.2 mL)” value in assay [1] (setting [3]), in assay [1] (setting [4]), in assay [2] (setting [3]) and in assay [2] (setting [4]) was 0 colonies throughout.
As for `Cc1cc(C)c2c(c1)S(=O)(=O)NC(=O)N2` [2d], the “number of M. tuberculosis colonies/standard inoculum volume (0.2 mL)” value in assay [1] (setting [3]), in assay [1] (setting [4]), in assay [2] (setting [3]) and in assay [2] (setting [4]) was 0 colonies in each case. Also, the “growth inhibition of mycobacteria (in words)” value (“growth inhibition” below) in assay [2] was “inhibited”.
For the compound `O=C1Nc2ccccc2S(=O)(=O)N1` [2a], the “number of M. tuberculosis colonies/standard inoculum volume (0.2 mL)” value in assay [1] (setting [3]), in assay [1] (setting [4]), in assay [2] (setting [3]) and in assay [2] (setting [4]) was 0 colonies throughout. In addition, the “growth inhibition” value in assay [2] is “inhibited”.
For the compound `O=C1Nc2ccc(F)cc2S(=O)(=O)N1` [2h], the “number of M. tuberculosis colonies/standard inoculum volume (0.2 mL)” value in assay [1] (setting [3]), in assay [1] (setting [4]), in assay [2] (setting [3]) and in assay [2] (setting [4]) was 0 colonies each time. The “growth inhibition” value in assay [2] was “inhibited”.
As to `O=C1Nc2ccc(O)cc2S(=O)(=O)N1` [2t], the “number of M. tuberculosis colonies/standard inoculum volume (0.2 mL)” value in assay [1] (setting [4]), in assay [2] (setting [3]) and in assay [2] (setting [4]) was 0 colonies in each case. The “growth inhibition” value in assay [2] is given as “inhibited”.
For the compound `CC(=O)/N=c1/sc(S(N)(=O)=O)nn1C` [MTZ, reference compound], the “number of M. tuberculosis colonies/standard inoculum volume (0.2 mL)” value in assay [1] (setting [3]), in assay [1] (setting [4]), in assay [2] (setting [3]) and in assay [2] (setting [4]) was 0 colonies in each case.
Take `Cc1ccc2c(c1)S(=O)(=O)NC(=O)N2` [2c]: the “number of M. tuberculosis colonies/standard inoculum volume (0.2 mL)” value in assay [1] (setting [3]), in assay [1] (setting [4]), in assay [2] (setting [3]) and in assay [2] (setting [4]) was 0 colonies in each case. For the same compound, the “growth inhibition” value in assay [2] is “inhibited”.
